Literature values in patent US20210205361A1, “COMPOSITIONS AND METHODS FOR CANCER IMMUNOTHERAPY” (priority 2016, published 2021).

Tests used:
[1] = system: advanced, treatment-refractory malignancies; details: subjects with non-small cell lung cancer (NSCLC)
[2] = system: diffuse large B-cell lymphoma (DLBCL)
recurrent multifocal GBM = details: two pediatric patients refractory to standard therapies

Which clinical activity [1] does the source give for “BMS-936558: fully human IgG4 monoclonal antibody targeting PD-1” here?
Its clinical activity is “substantial clinical activity”.

Which “subjects progression-free at the end of the follow-up period” value ([2]; DLBCL subjects after autologous stem cell transplantation, control group 47%) does the source give for “CT-011: humanized IgG1 monoclonal antibody against PD-1” here?
The value was 70%.

What about the subjects alive ([2]; DLBCL subjects after autologous stem cell transplantation, control group 62%) of the same substance?
Its subjects alive is 82%.

And the “activity of natural killer cells” value ([2]; finding of the phase II trial)?
The value was “augments”.

Which response (recurrent multifocal GBM) does the source give for “nivolumab: immune checkpoint inhibitor, anti-PD1 antibody” here?
The response was “remarkable and durable responses”.
